From ChEMBL document CHEMBL1909046, “DrugMatrix in vitro pharmacology data”

Key:
[1] = target: Beta-2 adrenergic receptor (Homo sapiens, UniProt P07550); test: DRUGMATRIX: Adrenergic beta2 radioligand binding (ligand: [3H] CGP-12177); assay type: cell membranes, Membrane; conditions: cho; Not Active = under 50% inhibition at 10 µM
[2] = target: Beta-3 adrenergic receptor (Homo sapiens, UniProt P13945); test: DRUGMATRIX: Adrenergic beta3 radioligand binding (ligand: [125I] Cyanopindolol); assay type: cell membranes, HEK293, Membrane; conditions: hek293; Not Active = under 50% inhibition at 10 µM
[3] = target: 5-hydroxytryptamine receptor 6 (Homo sapiens, UniProt P50406); assay type: cell membranes, HeLa, Membrane; conditions: hela; also: in other assays of this panel Not Active means under 50% inhibition at 10 µM
[4] = target: T1, C-C chemokine receptor type 4 (Homo sapiens, UniProt P51679); assay type: cell membranes, Membrane; conditions: chem-1; also: in other assays of this panel Not Active means under 50% inhibition at 10 µM
T1 sequence (P51679 whole entry): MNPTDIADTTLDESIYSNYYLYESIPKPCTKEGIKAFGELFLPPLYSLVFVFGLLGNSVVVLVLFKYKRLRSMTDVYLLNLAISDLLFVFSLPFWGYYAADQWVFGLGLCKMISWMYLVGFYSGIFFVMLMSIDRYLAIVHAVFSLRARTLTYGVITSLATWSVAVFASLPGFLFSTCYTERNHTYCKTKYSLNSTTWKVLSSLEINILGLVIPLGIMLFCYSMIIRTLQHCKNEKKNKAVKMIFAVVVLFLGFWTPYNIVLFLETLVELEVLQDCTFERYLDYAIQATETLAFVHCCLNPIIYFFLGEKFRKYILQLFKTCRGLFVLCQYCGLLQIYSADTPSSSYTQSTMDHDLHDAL

[5] = target: Melanocortin receptor 5 (Homo sapiens, UniProt P33032); assay type: cell membranes, HEK293, Membrane; conditions: hek293; also: in other assays of this panel Not Active means under 50% inhibition at 10 µM
[6] = target: T2, Amine oxidase [flavin-containing] A (Homo sapiens, UniProt P21397); test: DRUGMATRIX: Monoamine Oxidase MAO-A enzyme inhibition (substrate: Kynuramine); design: species or system BTI-TN-5B1-4; conditions: bti-tn-5b1-4; Not Active = under 50% inhibition at 10 µM
T2 sequence (P21397 whole entry): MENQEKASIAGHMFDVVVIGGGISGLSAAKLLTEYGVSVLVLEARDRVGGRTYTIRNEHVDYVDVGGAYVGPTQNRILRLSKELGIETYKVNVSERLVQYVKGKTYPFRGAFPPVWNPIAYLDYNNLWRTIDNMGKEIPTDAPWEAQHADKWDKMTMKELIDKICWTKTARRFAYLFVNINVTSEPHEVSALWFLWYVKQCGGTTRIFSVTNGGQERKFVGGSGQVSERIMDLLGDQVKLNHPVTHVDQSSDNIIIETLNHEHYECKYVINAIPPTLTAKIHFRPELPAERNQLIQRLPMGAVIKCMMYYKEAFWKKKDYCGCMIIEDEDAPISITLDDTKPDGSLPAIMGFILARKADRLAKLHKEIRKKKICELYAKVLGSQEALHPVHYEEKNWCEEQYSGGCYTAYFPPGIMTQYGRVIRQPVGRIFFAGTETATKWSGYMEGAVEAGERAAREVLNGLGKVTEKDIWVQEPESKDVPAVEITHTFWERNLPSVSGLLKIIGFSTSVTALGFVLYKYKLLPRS

[7] = target: cGMP-specific 3',5'-cyclic phosphodiesterase (Homo sapiens, UniProt O76074); test: DRUGMATRIX: Phosphodiesterase PDE5 enzyme inhibition (substrate: [3H]cGMP + cGMP); assay type: tissue-based, Platelet; conditions: platelet; Not Active = under 50% inhibition at 10 µM
[8] = DRUGMATRIX: Platelet-Derived Growth Factor (PDGF) radioligand binding (ligand: [125I] PDGF); assay type: cell-based; conditions: nih3t3; Not Active = under 50% inhibition at 10 µM
[9] = target: T3, Cathepsin G (Homo sapiens, UniProt P08311); assay type: tissue-based; conditions: neutrophil;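 also: inhibition of Cathepsin G enzyme activity, tested on an AMC-conjugated peptide substrate; in other assays of this panel Not Active means under 50% inhibition at 10 µM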
T3 sequence (P08311 whole entry): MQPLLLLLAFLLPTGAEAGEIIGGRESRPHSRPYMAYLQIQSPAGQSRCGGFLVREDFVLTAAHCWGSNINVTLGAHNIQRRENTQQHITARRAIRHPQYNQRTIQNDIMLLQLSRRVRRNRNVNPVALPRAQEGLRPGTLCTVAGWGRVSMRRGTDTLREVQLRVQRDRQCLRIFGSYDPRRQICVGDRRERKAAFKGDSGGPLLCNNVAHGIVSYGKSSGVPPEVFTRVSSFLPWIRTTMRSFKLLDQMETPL

[10] = target: Mitogen-activated protein kinase 14 (Homo sapiens, UniProt Q16539); design: species or system Escherichia coli
[11] = target: Protein phosphatase 3 catalytic subunit alpha (Homo sapiens, UniProt Q08209); design: species or system Escherichia coli
[12] = target: Epidermal growth factor receptor (Homo sapiens, UniProt P00533); test: DRUGMATRIX: Protein Tyrosine Kinase, EGF Receptor enzyme inhibition (substrate: Poly(Glu:Tyr)); assay type: cell-based, Insect cells; conditions: insect cells; Not Active = under 50% inhibition at 10 µM
[13] = DRUGMATRIX: Purinergic P2X radioligand binding (ligand: [3H] alpha, beta-Methylene-ATP); assay type: cell membranes, Oryctolagus cuniculus, New Zealand albino, Urinary bladder, Membrane; conditions: Not Active = under 50% inhibition at 10 µM

Sequence of Mitogen-activated protein kinase 14 (Q16539 whole entry): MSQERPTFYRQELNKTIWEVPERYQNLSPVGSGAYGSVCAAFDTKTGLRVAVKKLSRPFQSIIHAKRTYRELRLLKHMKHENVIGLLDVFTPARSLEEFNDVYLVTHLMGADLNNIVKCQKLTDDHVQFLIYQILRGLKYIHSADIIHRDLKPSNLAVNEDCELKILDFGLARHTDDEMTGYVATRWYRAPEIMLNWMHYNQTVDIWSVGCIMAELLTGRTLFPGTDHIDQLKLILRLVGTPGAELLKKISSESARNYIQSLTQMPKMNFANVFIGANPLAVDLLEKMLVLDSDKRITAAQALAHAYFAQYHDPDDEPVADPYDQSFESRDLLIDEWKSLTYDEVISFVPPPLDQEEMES
Sequence of Beta-3 adrenergic receptor (P13945 whole entry): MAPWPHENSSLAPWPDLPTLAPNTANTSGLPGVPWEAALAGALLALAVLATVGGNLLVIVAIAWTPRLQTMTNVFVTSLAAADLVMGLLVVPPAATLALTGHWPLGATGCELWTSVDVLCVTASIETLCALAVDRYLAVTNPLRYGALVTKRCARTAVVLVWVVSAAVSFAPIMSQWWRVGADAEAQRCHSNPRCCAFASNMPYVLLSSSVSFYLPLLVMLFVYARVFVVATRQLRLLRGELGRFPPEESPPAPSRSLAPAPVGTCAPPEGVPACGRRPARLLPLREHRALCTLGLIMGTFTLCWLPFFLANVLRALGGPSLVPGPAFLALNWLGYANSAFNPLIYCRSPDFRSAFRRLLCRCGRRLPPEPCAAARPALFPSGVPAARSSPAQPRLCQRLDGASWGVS
Sequence of 5-hydroxytryptamine receptor 6 (P50406 whole entry): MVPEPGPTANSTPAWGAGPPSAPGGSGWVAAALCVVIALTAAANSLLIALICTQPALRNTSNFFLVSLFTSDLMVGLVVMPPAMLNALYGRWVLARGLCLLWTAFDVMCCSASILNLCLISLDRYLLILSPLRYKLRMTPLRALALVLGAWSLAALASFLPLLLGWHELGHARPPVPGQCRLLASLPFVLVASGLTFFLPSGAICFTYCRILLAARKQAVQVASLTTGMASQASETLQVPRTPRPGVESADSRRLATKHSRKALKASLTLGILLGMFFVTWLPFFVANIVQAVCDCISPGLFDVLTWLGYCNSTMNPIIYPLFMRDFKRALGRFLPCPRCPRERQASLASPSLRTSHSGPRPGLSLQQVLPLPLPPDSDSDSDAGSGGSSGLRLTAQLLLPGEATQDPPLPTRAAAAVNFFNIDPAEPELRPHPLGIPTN
Sequence of Melanocortin receptor 5 (P33032 whole entry): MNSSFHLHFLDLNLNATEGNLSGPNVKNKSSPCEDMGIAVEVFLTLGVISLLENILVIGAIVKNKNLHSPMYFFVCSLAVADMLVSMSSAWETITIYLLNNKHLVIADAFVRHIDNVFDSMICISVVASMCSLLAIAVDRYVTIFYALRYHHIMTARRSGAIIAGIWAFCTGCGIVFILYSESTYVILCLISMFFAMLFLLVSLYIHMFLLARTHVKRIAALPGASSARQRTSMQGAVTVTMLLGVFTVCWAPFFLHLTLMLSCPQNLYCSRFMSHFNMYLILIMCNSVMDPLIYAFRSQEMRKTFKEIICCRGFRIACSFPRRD

CN[C@H](CC(C)C)C(=O)N[C@H]1C(=O)N[C@@H](CC(N)=O)C(=O)N[C@H]2C(=O)N[C@H]3C(=O)N[C@H](C(=O)N[C@H](C(=O)O)c4cc(O)cc(O)c4-c4cc3ccc4O)[C@H](O)c3ccc(c(Cl)c3)Oc3cc2cc(c3O[C@@H]2O[C@H](CO)[C@@H](O)[C@H](O)[C@H]2O[C@H]2C[C@](C)(N)[C@H](O)[C@H](C)O2)Oc2ccc(cc2Cl)[C@H]1O [VANCOMYCIN]
Not Active: IC50 [1] | IC50 [2] | IC50 [3] | IC50 [4] | IC50 [5] | IC50 [6] | IC50 [7] | IC50 [8] | Ki [8] | IC50 [9] | IC50 [10] | IC50 [11] | IC50 [12] | IC50 [13] | Ki [13]

COc1ccc(C(CN(C)C)C2(O)CCCCC2)cc1 (stereo unspecified) [VENLAFAXINE]
Not Active: IC50 [1] | IC50 [2] | IC50 [3] | IC50 [4] | IC50 [5] | IC50 [6] | IC50 [7] | IC50 [8] | Ki [8] | IC50 [9] | IC50 [10] | IC50 [11] | IC50 [12] | IC50 [13] | Ki [13]

IVERMECTIN
Not Active: IC50 [1] | Ki [1] | IC50 [2] | Ki [2] | IC50 [3] | Ki [3] | IC50 [4] | Ki [4] | IC50 [5] | Ki [5] | IC50 [6] | Ki [6] | IC50 [7] | Ki [7] | IC50 [8] | Ki [8] | IC50 [9] | Ki [9] | IC50 [10] | Ki [10] | IC50 [11] | Ki [11] | IC50 [12] | Ki [12] | IC50 [13] | Ki [13]
